Results from PubChem BioAssay AID2060490 (Molecular Pharmacology Branch, DTP, NCI, 2025).
pIC50: −log10 of the molar value.

System: 885512-296-R-J2-PDC complex spheroid viability
Assay: Anticancer human tumor 885512-296-R-J2-PDC patient-derived breast carcinoma cell line growth inhibition [GQUAD]
Conditions: for pIC50: curve of first compound; for viability, T/C: stronger effect = lower value; active = viability on the fitted dose curve at most 10% of control; inactive = the rest
Procedure, shortened: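 Viability of tumor cells grown as complex spheroids with endothelial and stromal cells, exposed to drug combinations. Top concentration at or near clinical Cmax (else 10 microM), diluted in half-log increments.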

[1] = second compound 0.0316 µM, first compound 0.0316 µM
[2] = second compound 0.0316 µM, first compound 0.1 µM
[3] = second compound 0.0316 µM, first compound 0.316 µM
[4] = second compound 0.0316 µM, first compound 1 µM
[5] = second compound 0.0316 µM, first compound 3.16 µM
[6] = second compound 0.0316 µM, first compound 10 µM
[7] = second compound 0.1 µM, first compound 0.0316 µM
[8] = second compound 0.1 µM, first compound 0.1 µM
[9] = second compound 0.1 µM, first compound 0.316 µM
[10] = second compound 0.1 µM, first compound 1 µM
[11] = second compound 0.1 µM, first compound 3.16 µM
[12] = second compound 0.1 µM, first compound 10 µM
[13] = second compound 0.316 µM, first compound 0.0316 µM
[14] = second compound 0.316 µM, first compound 0.1 µM
[15] = second compound 0.316 µM, first compound 0.316 µM
[16] = second compound 0.316 µM, first compound 1 µM
[17] = second compound 0.316 µM, first compound 3.16 µM
[18] = second compound 0.316 µM, first compound 10 µM
[19] = second compound 1 µM, first compound 0.0316 µM
[20] = second compound 1 µM, first compound 0.1 µM
[21] = second compound 1 µM, first compound 0.316 µM
[22] = second compound 1 µM, first compound 1 µM
[23] = second compound 1 µM, first compound 3.16 µM
[24] = second compound 1 µM, first compound 10 µM
[25] = second compound 3.16 µM, first compound 0.0316 µM
[26] = second compound 3.16 µM, first compound 0.1 µM
[27] = second compound 3.16 µM, first compound 0.316 µM
[28] = second compound 3.16 µM, first compound 1 µM
[29] = second compound 3.16 µM, first compound 3.16 µM
[30] = second compound 3.16 µM, first compound 10 µM
[31] = second compound 10 µM, first compound 0.0316 µM
[32] = second compound 10 µM, first compound 0.1 µM
[33] = second compound 10 µM, first compound 0.316 µM
[34] = second compound 10 µM, first compound 1 µM
[35] = second compound 10 µM, first compound 3.16 µM
[36] = second compound 10 µM, first compound 10 µM
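Also: spheroids exposed to the compounds for one week.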
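For viability, T/C in this document: percent of tumor spheroid viability relative to DMSO vehicle control wells.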

CC(C)n1c(=O)n(C)c2cnc3cc(F)c(-c4ccc(OCCCN5CCCCC5)nc4)cc3c21 + Cc1cnc(CNC(=O)c2c(=O)c3ccc(N4CCCN(C)CC4)nc3n3c2sc2ccccc23)cn1
inactive: viability, T/C [1] 28.4% | viability, T/C [2] 20.2% | viability, T/C [3] 26.6% | viability, T/C [4] 39.4% | viability, T/C [5] 46.5% | viability, T/C [6] 49.1% | viability, T/C [7] 15% | viability, T/C [8] 16.6% | viability, T/C [9] 24% | viability, T/C [10] 18.1% | viability, T/C [11] 31.6% | viability, T/C [12] 30.8% | viability, T/C [13] 13.3% | viability, T/C [14] 13.1% | viability, T/C [15] 12.6% | viability, T/C [16] 16.9% | viability, T/C [17] 14.6% | viability, T/C [18] 19.5% | viability, T/C [19] 18.1% | viability, T/C [20] 16.6% | viability, T/C [21] 16.4% | viability, T/C [22] 18% | viability, T/C [23] 23.2% | viability, T/C [24] 12.4% | viability, T/C [25] 21.9% | viability, T/C [26] 23.4% | viability, T/C [27] 21.7% | viability, T/C [28] 21.8% | viability, T/C [29] 24.8% | viability, T/C [30] 9.39%
active: viability, T/C [31] 0.15% | viability, T/C [32] 0.19% | viability, T/C [33] 0.2% | viability, T/C [34] 0.17% | viability, T/C [35] 0.16% | viability, T/C [36] 0.16%
> 7.50: pIC50 (second compound 0.0316 µM) | pIC50 (second compound 0.1 µM) | pIC50 (second compound 0.316 µM) | pIC50 (second compound 1 µM) | pIC50 (second compound 3.16 µM) | pIC50 (second compound 10 µM)

O=C(NO)c1cnc(N2CCN(S(=O)(=O)c3ccc4ccccc4c3)CC2)nc1 + Cc1[nH]c2ccc(F)cc2c1-c1nc2c3cccnc3c3ncccc3c2[nH]1
> 7.50: pIC50 (second compound 0.0316 µM) | pIC50 (second compound 0.1 µM) | pIC50 (second compound 0.316 µM) | pIC50 (second compound 1 µM) | pIC50 (second compound 3.16 µM) | pIC50 (second compound 10 µM)
active: viability, T/C [1] 7.49% | viability, T/C [2] 2.85% | viability, T/C [3] 3.25% | viability, T/C [4] 3.35% | viability, T/C [5] 2.95% | viability, T/C [6] 3.28% | viability, T/C [7] 6.66% | viability, T/C [8] 3.49% | viability, T/C [9] 2.89% | viability, T/C [10] 3.93% | viability, T/C [11] 2.97% | viability, T/C [12] 4.1% | viability, T/C [13] 7.12% | viability, T/C [14] 4.32% | viability, T/C [15] 3.29% | viability, T/C [16] 3.62% | viability, T/C [17] 3.66% | viability, T/C [18] 4.67% | viability, T/C [19] 6.46% | viability, T/C [20] 4.49% | viability, T/C [21] 3.76% | viability, T/C [22] 5.02% | viability, T/C [23] 5.46% | viability, T/C [24] 3.77% | viability, T/C [25] 2.35% | viability, T/C [26] 2.1% | viability, T/C [27] 2.47% | viability, T/C [28] 2.68% | viability, T/C [29] 1.7% | viability, T/C [30] 2.56% | viability, T/C [31] 1.59% | viability, T/C [32] 2.99% | viability, T/C [33] 1.66% | viability, T/C [34] 1.46% | viability, T/C [35] 1.54% | viability, T/C [36] 2.58%

Cn1ncnc1[C@H]1c2n[nH]c(=O)c3cc(F)cc(c23)N[C@@H]1c1ccc(F)cc1 + Cc1cnc(CNC(=O)c2c(=O)c3ccc(N4CCCN(C)CC4)nc3n3c2sc2ccccc23)cn1
> 9.00: pIC50 (second compound 0.316 µM) | pIC50 (second compound 1 µM) | pIC50 (second compound 3.16 µM) | pIC50 (second compound 10 µM)
active: viability, T/C (second compound 10 µM, first compound 0.000999 µM) 0.17% | viability, T/C (second compound 10 µM, first compound 0.00316 µM) 0.23% | viability, T/C (second compound 10 µM, first compound 0.00999 µM) 0.25% | viability, T/C [31] 0.19% | viability, T/C (second compound 10 µM, first compound 0.0999 µM) 0.2% | viability, T/C [33] 0.23%
8.45: pIC50 (second compound 0.1 µM)
inactive: viability, T/C (second compound 0.0316 µM, first compound 0.000999 µM) 89.2% | viability, T/C (second compound 0.0316 µM, first compound 0.00316 µM) 83.8% | viability, T/C (second compound 0.0316 µM, first compound 0.00999 µM) 73.5% | viability, T/C [1] 57% | viability, T/C (second compound 0.0316 µM, first compound 0.0999 µM) 34.4% | viability, T/C [3] 25.5% | viability, T/C (second compound 0.1 µM, first compound 0.000999 µM) 51.7% | viability, T/C (second compound 0.1 µM, first compound 0.00316 µM) 57.4% | viability, T/C (second compound 0.1 µM, first compound 0.00999 µM) 37.1% | viability, T/C [7] 34% | viability, T/C (second compound 0.1 µM, first compound 0.0999 µM) 27.3% | viability, T/C [9] 21.1% | viability, T/C (second compound 0.316 µM, first compound 0.000999 µM) 31.3% | viability, T/C (second compound 0.316 µM, first compound 0.00316 µM) 24% | viability, T/C (second compound 0.316 µM, first compound 0.00999 µM) 24.2% | viability, T/C [13] 20.5% | viability, T/C (second compound 0.316 µM, first compound 0.0999 µM) 24% | viability, T/C [15] 20.1% | viability, T/C (second compound 1 µM, first compound 0.000999 µM) 27.4% | viability, T/C (second compound 1 µM, first compound 0.00316 µM) 22.9% | viability, T/C (second compound 1 µM, first compound 0.00999 µM) 24.3% | viability, T/C [19] 19.2% | viability, T/C (second compound 1 µM, first compound 0.0999 µM) 20% | viability, T/C [21] 21.6% | viability, T/C (second compound 3.16 µM, first compound 0.000999 µM) 30.3% | viability, T/C (second compound 3.16 µM, first compound 0.00316 µM) 26.9% | viability, T/C (second compound 3.16 µM, first compound 0.00999 µM) 23.2% | viability, T/C [25] 26.2% | viability, T/C (second compound 3.16 µM, first compound 0.0999 µM) 21.3% | viability, T/C [27] 22.2%
7.36: pIC50 (second compound 0.0316 µM)

CC(C)(O)C1CCC(Nc2ccc3ncc(-c4cccc(C(F)(F)F)c4)n3n2)CC1 (stereo not drawn) + Cc1cnc(CNC(=O)c2c(=O)c3ccc(N4CCCN(C)CC4)nc3n3c2sc2ccccc23)cn1
5.87: pIC50 (second compound 0.1 µM)
inactive: viability, T/C [1] 91.5% | viability, T/C [2] 70.3% | viability, T/C [3] 85.9% | viability, T/C [4] 69.8% | viability, T/C [5] 25.8% | viability, T/C [6] 25.2% | viability, T/C [7] 63.4% | viability, T/C [8] 55.3% | viability, T/C [9] 52.6% | viability, T/C [10] 57.6% | viability, T/C [11] 29.6% | viability, T/C [12] 24.7% | viability, T/C [13] 24.4% | viability, T/C [14] 23.7% | viability, T/C [15] 25.7% | viability, T/C [16] 27.1% | viability, T/C [17] 28.8% | viability, T/C [18] 20.6% | viability, T/C [19] 22.9% | viability, T/C [20] 23.8% | viability, T/C [21] 29.4% | viability, T/C [22] 29.9% | viability, T/C [23] 25.6% | viability, T/C [24] 11.9% | viability, T/C [25] 27.7% | viability, T/C [26] 28% | viability, T/C [27] 24.5% | viability, T/C [28] 23.1%
active: viability, T/C [29] 0.1% | viability, T/C [30] 0.36% | viability, T/C [31] 0.06% | viability, T/C [32] 0.14% | viability, T/C [33] 0.19% | viability, T/C [34] 0.18% | viability, T/C [35] 0.19% | viability, T/C [36] 0.2%
5.78: pIC50 (second compound 0.0316 µM)
> 7.50: pIC50 (second compound 0.316 µM) | pIC50 (second compound 1 µM) | pIC50 (second compound 3.16 µM) | pIC50 (second compound 10 µM)
